Source: patent US20110178171A1, “COMPOUNDS FOR CANCER THERAPY” (China Medical University, priority 2010, published 2011)

Experiments:
LNCaP xenografts = test: Antitumor activity in vivo, LNCaP xenograft; design: species or system mice
Description: Xenograft mice as a model system to study cytotoxicity effect of isochaihulactone in vivo: the implantation of cancer cells (LNCaP) were carried out similarly to previous reports. Female congenital athymic BALB/c nude (nu/nu) mice were purchased from National Sciences Council (Taipei, Taiwan) and all procedures were performed in compliance with the standard operating procedures of the Laboratory Animal Center of China Medical University (Taichung, Taiwan). All experiments were carried out using 6-8-week old mice weighing 18-22 g. The animals were s.c. implanted with 1×10^7 cell sinto the back of mice. When the tumor reached 80-120 mm3 in volume, animals were divided randomly into control and test groups consisting of six mice per group (day 0). Daily s.c. administration of z-K8, dissolved in a vehicle of 20% Tween 80 in normal saline (v/v) was performed from days 0 to 4 far from the inoculated tumor sites (>1.5 cm). The control group was treated with vehicle only. The mice were weighed three times a week up to days 21-28 to monitor the effects and the same time the tumor volume was determined by measurement of the length (L) and width (W) of the tumor. The tumor volume at day n (TVn) was calculated as TV (mm3)=(L×W^2)/2. The relative tumor volume at day n (RTVn) versus day 0 was expressed according to the following formula: RTVn=TVn/TV0. Tumor regression (T/C(%)) in treated versus control mice was calculated using: T/C(%)=(mean RTV of treated group)/(mean RTV of control group)×100. Xenograft tumors as well as other vital organs of treated and control. The results are shown in Tables 6 and 7 and FIGS. 6 and 7.
(§1) Assays were carried out to examine the inhibition of human xenografts growth in vivo by isochaihulactone. Briefly, LNCaP tumor-bearing mice were administered s.c. with vehicle control, 30 mg/kg E-K8, and Z-K8 respectively on days 0-4 for 5 days. The volumes of the tumors were measured. […] Scale bars, […]. Data represent means W S.D. of tumor volume at each time
as §1, with “Z-K8. Again,” for “isochaihulactone. Briefly,”, “Z-K8 15” for “30”, “mg/kg” for “mg/kg E-K8, and Z-K8 respectively”, “time point.” for “time”

[1] = system: liver cancer cell line J5; test: MTT growth inhibition assay, J5; type: cell-based; conditions: J5, hepatocarcinoma
Description: The results were determined by three independent experiments.
Besides, the above assay was also conducted on gastric cancer cell line NCI-N87, liver cancer cell line HepG2 and J5, lung cancer cell line A549, and oral cancer cell line OECM-1.

LNCaP cells = test: Cell cycle analysis by flow cytometry; type: cell-based, human; conditions: 24 h
Description: The cell cycle was determined by flow cytometry with DNA staining to reveal the total amount of DNA. Approximately 5×10^5 of cells were incubated in various concentration of isochaihulactone for the indicated time. Cells were harvested by treating the cells with trypsin/EDTA. The cells were collected, washed with PBS, fixed with cold 70% ethanol overnight, and then stained with a solution containing […] PI, 10 mg/ml RNase A, and 0.1% Triton X-100 for 1 h in the dark. The cells will then pass through FACScan flow cytometer (equipped with a 488-nmargon laser) to measure the DNA content. The data was obtained and analyzed with CellQuest 3.0.1 (Becton Dickinson, Franklin Lakes, N.J.) and ModFitLT V2.0 software. The results are shown Table 4 and FIG. 4.
Assays were carried out to examine the effect of Z-K8 in inducing G2/M phase arrest and apoptosis in LNCaP cells. Briefly, the cells were treated with different concentrations of Z-K8 (ranging from 0.25 to 2 μM) for 24 h. The cell cycle analysis was done according to the method described above. As shown in FIG. 4 and Table 4, Z-K8 induced cell cycle G2/M arrest in LNCaP cells.

[2] = 30 mg/kg s.c. days 0-4, day 1 after administration
[3] = 30 mg/kg s.c. days 0-4, day 4 after administration
[4] = 30 mg/kg s.c. days 0-4, day 7 after administration
[5] = 30 mg/kg s.c. days 0-4, day 10 after administration
[6] = 30 mg/kg s.c. days 0-4, day 13 after administration
[7] = 30 mg/kg s.c. days 0-4, day 16 after administration
[8] = 30 mg/kg s.c. days 0-4, day 19 after administration

SMILES: COc1cc(/C=C2\C(=O)OCC2Cc2ccc3c(c2)OCO3)cc(OC)c1OC (racemic) [Z-K8, Racemic (Z)-β-(3′,4′-Methylenedioxybenzyl)-α-(3′,4′,5′-trimethoxybenzylidene)-γ-butyrolactone]
- Relative tumor volume (LNCaP xenografts; 15 mg/kg s.c. days 0-4, day 1 after administration): 1
- Relative tumor volume (LNCaP xenografts; 15 mg/kg s.c. days 0-4, day 4 after administration): 1.59
- Relative tumor volume (LNCaP xenografts; 15 mg/kg s.c. days 0-4, day 7 after administration): 1.91
- Relative tumor volume (LNCaP xenografts; 15 mg/kg s.c. days 0-4, day 10 after administration): 1.94
- Relative tumor volume (LNCaP xenografts; 15 mg/kg s.c. days 0-4, day 13 after administration): 2.13
- Relative tumor volume (LNCaP xenografts; 15 mg/kg s.c. days 0-4, day 16 after administration): 1.79
- Relative tumor volume (LNCaP xenografts; 15 mg/kg s.c. days 0-4, day 19 after administration): 2.00
- Relative tumor volume (LNCaP xenografts; 15 mg/kg s.c. days 0-4, day 21 after administration): 2.23
- Relative tumor volume (LNCaP xenografts; [2]): 1
- Tumor growth volume (mm^3) (LNCaP xenografts; [2]): 0 mm^3
- Relative tumor volume (LNCaP xenografts; [3]): 1.11
- Tumor growth volume (mm^3) (LNCaP xenografts; [3]): 0 mm^3
- Relative tumor volume (LNCaP xenografts; [4]): 1.12
- Tumor growth volume (mm^3) (LNCaP xenografts; [4]): 90 mm^3
- Relative tumor volume (LNCaP xenografts; [5]): 1.20
- Tumor growth volume (mm^3) (LNCaP xenografts; [5]): 202.5 mm^3
- Relative tumor volume (LNCaP xenografts; [6]): 1.23
- Tumor growth volume (mm^3) (LNCaP xenografts; [6]): 260 mm^3
- Relative tumor volume (LNCaP xenografts; [7]): 1.47
- Tumor growth volume (mm^3) (LNCaP xenografts; [7]): 255 mm^3
- Relative tumor volume (LNCaP xenografts; [8]): 1.23
- Tumor growth volume (mm^3) (LNCaP xenografts; [8]): 200 mm^3
- Relative tumor volume (LNCaP xenografts; 30 mg/kg s.c. days 0-4, day 21 after administration): 1.85
- Tumor growth volume (mm^3) (LNCaP xenografts; 30 mg/kg s.c. days 0-4, day 22 after administration): 225 mm^3
- Tumor growth volume (mm^3) (LNCaP xenografts; 30 mg/kg s.c. days 0-4, day 25 after administration): 375 mm^3
- Tumor growth volume (mm^3) (LNCaP xenografts; 30 mg/kg s.c. days 0-4, day 28 after administration): 435 mm^3
- Tumor growth volume (mm^3) (LNCaP xenografts; 30 mg/kg s.c. days 0-4, day 31 after administration): 633.5 mm^3
- tumor growth inhibition, in words (LNCaP xenografts; LNCaP tumor-bearing mice, 30 mg/kg s.c. days 0-4 (FIG. 6)): better tumor growth inhibition than E-form K8
- IC50 [1]: 2500 nM
- Cells in phase (%) G0/G1 (LNCaP cells; 0.25 μM): 63.56%
- Cells in phase (%) G2/M (LNCaP cells; 0.25 μM): 18.35%
- Cells in phase (%) S (LNCaP cells; 0.25 μM): 5.42%
- Cells in phase (%) Sub-G1 (LNCaP cells; 0.25 μM): 0.48%
- Cells in phase (%) G0/G1 (LNCaP cells; 0.5 μM): 48.30%
- Cells in phase (%) G2/M (LNCaP cells; 0.5 μM): 24.99%
- Cells in phase (%) S (LNCaP cells; 0.5 μM): 6.61%
- Cells in phase (%) Sub-G1 (LNCaP cells; 0.5 μM): 3.24%
- Cells in phase (%) G0/G1 (LNCaP cells; 1 μM): 57.27%
- Cells in phase (%) G2/M (LNCaP cells; 1 μM): 10.16%
- Cells in phase (%) S (LNCaP cells; 1 μM): 4.70%
- Cells in phase (%) Sub-G1 (LNCaP cells; 1 μM): 8.19%
- Cells in phase (%) G0/G1 (LNCaP cells; 2 μM): 22.25%
- Cells in phase (%) G2/M (LNCaP cells; 2 μM): 43.92%
- Cells in phase (%) S (LNCaP cells; 2 μM): 8.39%
- Cells in phase (%) Sub-G1 (LNCaP cells; 2 μM): 5.73%
